target: T1, IRAK4 (Homo sapiens, UniProt Q9NWZ3); experiment: IRAK4 MSD Degradation in OCI-LY10; type: cell-based; details: OCI-LY10 cells, Meso Scale Discovery, incubated 4 to 24 hours
T1 construct: endogenous in cells; host or cells: OCI-LY10
T1 sequence (Q9NWZ3 1-460): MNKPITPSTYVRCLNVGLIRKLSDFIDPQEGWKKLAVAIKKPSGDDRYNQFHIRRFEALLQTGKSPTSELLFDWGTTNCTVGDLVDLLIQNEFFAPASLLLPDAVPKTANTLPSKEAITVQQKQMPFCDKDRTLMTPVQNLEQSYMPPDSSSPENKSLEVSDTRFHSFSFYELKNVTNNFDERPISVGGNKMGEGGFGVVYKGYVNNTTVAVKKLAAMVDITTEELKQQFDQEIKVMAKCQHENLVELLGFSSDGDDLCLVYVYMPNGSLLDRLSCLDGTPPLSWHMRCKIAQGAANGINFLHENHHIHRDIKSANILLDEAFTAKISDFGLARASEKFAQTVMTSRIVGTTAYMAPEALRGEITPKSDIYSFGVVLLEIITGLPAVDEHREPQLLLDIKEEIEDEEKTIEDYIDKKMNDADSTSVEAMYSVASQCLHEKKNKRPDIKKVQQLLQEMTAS
In short: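 IRAK4 degradation was quantified by Meso Scale electrochemiluminescence (anti-IRAK4 capture and detection antibodies) in lysates of treated OCI-LY10 cells. Compounds were dosed at 8 concentrations (1:3 dilutions, top 1 to 10 μM) for 4 to 24 h; DC50 derived by three-parameter logistic fitting.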

| DC50 [nM] | Structure (SMILES) |
| --- | --- |
| 10 to 50 | Cn1c(=O)n(C2CCC(=O)NC2=O)c2cccc(C3CCN(C[C@H]4CC[C@H](n5cc6cc(NC(=O)c7cccc(C(F)(F)F)n7)c(N7C[C@@H]8C[C@H]7CO8)cc6n5)CC4)CC3)c21 (some centres unmarked) [I-55] |
| < 10 | Cn1c(=O)n(C2CCC(=O)NC2=O)c2cccc(N3CCN(C[C@H]4CC[C@H](n5cc6cc(NC(=O)c7cccc(C(F)(F)F)n7)ccc6n5)CC4)CC3)c21 (some centres unmarked) [I-209] |
| 10 to 50 | COc1cc2nn([C@H]3CC[C@H](CN(C)C4CCN(c5cccc6c5n(C)c(=O)n6C5CCC(=O)NC5=O)CC4)CC3)cc2cc1NC(=O)c1cc(F)cc(C(F)(F)F)c1 (some centres unmarked) [I-131] |
| 10 to 50 | N#Cc1cc2nn([C@H]3CC[C@H](CN4CCN(c5cccc6c(N7CCC(=O)NC7=O)cncc56)CC4)CC3)cc2cc1NC(=O)c1cccc(C(F)(F)F)n1 [I-288] |
| 10 to 50 | Cn1c(=O)n(C2CCC(=O)NC2=O)c2ccc(Cl)c(C3CCN(C[C@H]4CC[C@H](n5cc6cc(NC(=O)c7cccc(C(F)(F)F)n7)ncc6n5)CC4)CC3)c21 (some centres unmarked) [I-88] |
| > 200 | O=C1CCN(c2cncc3cc(C4CCN(C[C@H]5CC[C@H](c6nc7cnc(NC(=O)c8cccc(C(F)(F)F)n8)cc7s6)CC5)CC4)ccc23)C(=O)N1 [I-241] |
| 50 to 100 | Cn1c(=O)n(C2CCC(=O)NC2=O)c2cccc(N3CC4CC(C3)N4C[C@H]3CC[C@H](n4cc5cc(NC(=O)c6cccc(C(F)(F)F)n6)ccc5n4)CC3)c21 (single isomer, unassigned) [I-157, N-[2-[4-[[3-[1-(2,6-dioxo-3-piperidyl)-3-methyl-2-oxo-benzimidazol-4-yl]-3,6-diazabicyclo[3.1.1]heptan-6-yl]methyl]cyclohexyl]indazol-5-yl]-6-(trifluoromethyl)pyridine-2-carboxamide] |
| < 10 | COc1cc2nn([C@H]3CC[C@H](CN4CCN(c5cccc6c(N7CCC(=O)NC7=O)cncc56)CC4)CC3)cc2cc1NC(=O)c1cncc(C(F)(F)F)n1 [I-299] |
| < 10 | Cn1c(=O)n(C2CCC(=O)NC2=O)c2cccc(N3CC4CCC(C3)N4C[C@H]3CC[C@H](n4cc5cc(NC(=O)c6cccc(C(F)(F)F)n6)ccc5n4)CC3)c21 (some centres unmarked) [I-164] |
| < 10 | COc1cc2nn([C@H]3CC[C@H](CN4C5CC4CN(c4cccc6c(N7CCC(=O)NC7=O)cncc46)C5)CC3)cc2cc1NC(=O)c1cccc(C(F)(F)F)n1 [I-220] |
| < 10 | COc1cc2nn([C@H]3CC[C@H](CN4CCN(c5cccc6c5n(C)c(=O)n6C5CCC(=O)NC5=O)CC4)CC3)cc2cc1NC(=O)c1cncc(C(F)(F)F)n1 (some centres unmarked) [I-297] |
| < 10 | CN(C[C@H]1CC[C@H](n2cc3cc(NC(=O)c4cccc(C(F)(F)F)n4)c(C(C)(C)O)cc3n2)CC1)C1CCN(c2cccc3c(N4CCC(=O)NC4=O)cncc23)CC1 [I-66] |
| 10 to 50 | Cn1c(=O)n(C2CCC(=O)NC2=O)c2cccc(N3CCN(C[C@H]4CC[C@H](n5cc6cc(NC(=O)c7cccc(C(F)(F)F)n7)c(C(=O)O)cc6n5)CC4)CC3)c21 (some centres unmarked) [I-415, 2-[4-[[4-[1-(2,6-dioxo-3-piperidyl)-3-methyl-2-oxo-benzimidazol-4-yl]piperazin-1-yl]methyl]cyclohexyl]-5-[[6-(trifluoromethyl)pyridine-2-carbonyl]amino]indazole-6-carboxylic acid] |
| < 10 | COc1cc(NC(=O)c2cccc(C(F)(F)F)n2)cc2cn([C@H]3CC[C@H](CN4CCN(c5cccc6c5n(C)c(=O)n6C5CCC(=O)NC5=O)CC4)CC3)nc12 (some centres unmarked) [I-218] |
| < 10 | COc1ccc2c(c1C1CCN(C[C@H]3CC[C@H](n4cc5cc(NC(=O)c6cccc(C(F)(F)F)n6)ncc5n4)CC3)CC1)n(C)c(=O)n2C1CCC(=O)NC1=O (stereo partly drawn) [I-104, N-[2-[4-[[4-[1-[(3S)-2,6-dioxo-3-piperidyl]-5-methoxy-3-methyl-2-oxo-benzimidazol-4-yl]-1-piperidyl]methyl]cyclohexyl]pyrazolo[3,4-c]pyridin-5-yl]-6-(trifluoromethyl)pyridine-2-carboxamide] |
| 10 to 50 | Cc1ccc2c(c1C1CCN(C[C@H]3CC[C@H](n4cc5cc(NC(=O)c6cccc(C(F)(F)F)n6)c(F)cc5n4)CC3)CC1)n(C)c(=O)n2C1CCC(=O)NC1=O (some centres unmarked) [I-67] |
| < 10 | COc1cc2nn([C@H]3CC[C@H](CN(C)C4CCN(c5cccc6c(N7CCC(=O)NC7=O)cncc56)CC4)CC3)cc2cc1NC(=O)c1cccc(C(F)(F)F)n1 [I-96] |
| < 10 | COc1ccc2c(c1C1CCN(C[C@H]3CC[C@H](n4cc5cc(NC(=O)c6cccc(C(F)(F)F)n6)ncc5n4)CC3)CC1)n(C)c(=O)n2C1CCC(=O)NC1=O (some centres unmarked) [I-83] |
| < 10 | COc1cc2nn([C@H]3CC[C@H](CN4CC=C(c5cccc6c(N7CCC(=O)NC7=O)cncc56)CC4)CC3)cc2cc1NC(=O)c1cccc(C(F)(F)F)n1 [I-357] |
| > 200 | CN(C[C@H]1CC[C@H](n2cc3cc(NC(=O)c4cncc(C#N)c4)c(OC(F)(F)F)cc3n2)CC1)C1CCN(c2cccc3c2n(C)c(=O)n3C2CCC(=O)NC2=O)CC1 (some centres unmarked) [I-249] |

Further lines, the molecule ahead of its results:

| Structure (SMILES) | DC50 [nM] |
| --- | --- |
| Cn1c(=O)n(C2CCC(=O)NC2=O)c2cccc(C3CCN(C[C@H]4CC[C@H](n5cc6cc(NC(=O)n7ccc8cc(C#N)cnc87)ccc6n5)CC4)CC3)c21 (some centres unmarked) [I-129] | < 10 |
| CC(C)(O)c1cc2nc([C@H]3CC[C@H](C(=O)N4CCN(CCNc5cccc6c5C(=O)N(C5CCC(=O)NC5=O)C6=O)CC4)CC3)sc2cc1NC(=O)c1cncc(C#N)c1 (some centres unmarked) [I-431] | > 200 |
| COc1cc2nn([C@H]3CC[C@H](CN4CCC(c5cccc6c5n(C)c(=O)n6C5CCC(=O)NC5=O)CC4)CC3)cc2cc1NC(=O)c1cnc(C#N)c(Cl)c1 (some centres unmarked) [I-136] | > 200 |
| CC(C)Nc1cc(-n2ccc3cc(C#N)cnc32)ncc1-c1cn([C@H]2CC[C@H](CN3CCN(c4cccc5c4n(C)c(=O)n5C4CCC(=O)NC4=O)CC3)CC2)nn1 (some centres unmarked) [I-231] | 10 to 50 |
| CC(C)Nc1cc(-n2ccc3cc(C#N)cnc32)ncc1C(=O)N1CCC(CN(C)C2CCN(c3cccc4c3n(C)c(=O)n4C3CCC(=O)NC3=O)CC2)CC1 (centres unmarked) [I-115] | > 200 |
| COc1cc2nn([C@H]3CC[C@H](CN4CCC(c5ccc6c(c5)n(C)c(=O)n6C5CCC(=O)NC5=O)CC4)CC3)cc2cc1NC(=O)c1cncc(C#N)c1 (some centres unmarked) [I-169] | > 200 |
| COc1cc2nn([C@H]3CC[C@H](CN4CCC(c5cccc6c5n(C)c(=O)n6C5CCC(=O)NC5=O)CC4)CC3)cc2cc1NC(=O)c1cnc(C)c(Cl)c1 (some centres unmarked) [I-134] | > 200 |
| COc1cc2nc([C@H]3CC[C@H](CN(C)CCCCNc4cccc5c4C(=O)N(C4CCC(=O)NC4=O)C5=O)CC3)sc2cc1NC(=O)c1cccc(C#N)n1 (some centres unmarked) [I-433] | 10 to 50 |
| COc1cc2nn([C@H]3CC[C@H](CN4CCC(c5cccc6c5n(C)c(=O)n6C5CCC(=O)NC5=O)CC4)CC3)cc2cc1NC(=O)c1cncc(Cl)c1 (some centres unmarked) [I-93] | < 10 |
| COc1cc2nn([C@H]3CC[C@H](CN4CCN(c5cccc6c5n(C)c(=O)n6C5CCC(=O)NC5=O)CC4)CC3)cc2cc1NC(=O)c1cccc(C(F)(F)F)c1F (some centres unmarked) [I-216] | < 10 |
| COc1cc2nn([C@H]3C[C@@H](CN4CC(c5cccc6c5n(C)c(=O)n6C5CCC(=O)NC5=O)C4)C3)cc2cc1NC(=O)c1cccc(C(F)(F)F)n1 (some centres unmarked) [I-50, N-[2-[3-[[3-[1-(2,6-dioxo-3-piperidyl)-3-methyl-2-oxo-benzimidazol-4-yl]azetidin-1-yl]methyl]cyclobutyl]-6-methoxy-indazol-5-yl]-6-(trifluoromethyl)pyridine-2-carboxamide] | 10 to 50 |
| COc1cc2nc([C@H]3CC[C@H](CN4CCC5(CC4)CC(CCNc4cccc6c4C(=O)N(C4CCC(=O)NC4=O)C6=O)C5)CC3)oc2cc1NC(=O)c1cnn2cccnc12 (some centres unmarked) [I-7] | > 200 |
| CC(C)(O)c1cc2nc([C@H]3CC[C@H](C(=O)N4CCN(CCCNc5cccc6c5C(=O)N(C5CCC(=O)NC5=O)C6=O)CC4)CC3)sc2cc1NC(=O)c1cccc(C#N)n1 (some centres unmarked) [I-435] | 10 to 50 |
| COc1cc2nn([C@H]3CC[C@H](CN4CCC5(CC4)CC(CCNc4cccc6c4C(=O)N(C4CCC(=O)NC4=O)C6=O)C5)CC3)cc2cc1NC(=O)c1cccc(C(F)(F)F)n1 (some centres unmarked) [I-9] | 50 to 100 |
| Cn1c(=O)n(C2CCC(=O)NC2=O)c2ccc(Cl)c(C3CCN(C[C@H]4C[C@H](n5cc6cc(NC(=O)c7cccc(C(F)(F)F)n7)ncc6n5)C4)CC3)c21 (some centres unmarked) [I-149] | 100 to 200 |
| Cc1cccc(C(=O)Nc2cc3sc([C@H]4CC[C@H](CN5C[C@@H]6C[C@H]5CN6CCCNc5cccc6c5C(=O)N(C5CCC(=O)NC5=O)C6=O)CC4)nc3cc2C(C)(C)O)n1 (some centres unmarked) [I-439] | 10 to 50 |
| COc1cncc(C(=O)Nc2cc3sc([C@H]4CC[C@H](CN(C)CCCCNc5cccc6c5C(=O)N(C5CCC(=O)NC5=O)C6=O)CC4)nc3cc2OC)c1 (some centres unmarked) [I-449] | > 200 |
| CC(C)(O)c1cc2nc([C@H]3CC[C@H](C(=O)N4CCN(CCNc5cccc6c5C(=O)N(C5CCC(=O)NC5=O)C6=O)CC4)CC3)sc2cc1NC(=O)c1cccc(C#N)n1 (some centres unmarked) [I-434] | 50 to 100 |
| CN(CCCNc1cccc2c1C(=O)N(C1CCC(=O)NC1=O)C2=O)C[C@H]1CC[C@H](c2nc3cc(C(C)(C)O)c(NC(=O)c4cncc(Cl)c4)cc3s2)CC1 (some centres unmarked) [I-476] | > 200 |
| CC(C)(O)c1cc2nc([C@H]3CC[C@H](CN4CC5(CC(CCNc6cccc7c6C(=O)N(C6CCC(=O)NC6=O)C7=O)C5)C4)CC3)sc2cc1NC(=O)c1cncc(F)c1 (some centres unmarked) [I-478] | 10 to 50 |
| Cc1cccc(C(=O)Nc2cc3sc([C@H]4CC[C@H](C(=O)N5CC6(CC(CCNc7cccc8c7C(=O)N(C7CCC(=O)NC7=O)C8=O)C6)C5)CC4)nc3cc2C(C)(C)O)n1 (some centres unmarked) [I-469] | 100 to 200 |
